Data taken from ChEMBL document CHEMBL1201862, “PubChem BioAssay data set” (2004).
Activity calls are given as the source filed them.

How the values were obtained:
[1] = target: T1, Cytochrome P450 3A4 (Homo sapiens, UniProt P08684); settings: Potency
[2] = target: Cytochrome P450 2C19 (Homo sapiens, UniProt P33261); assay: Cytochrome panel assay with activity outcomes. Panel member name: p450-cyp2c19 Compounds with AC50 equal or less than 10 uM are considered active; assay type: functional; settings: read-out: AC50
Cytochrome P450 2C19, sequence (P33261 whole entry): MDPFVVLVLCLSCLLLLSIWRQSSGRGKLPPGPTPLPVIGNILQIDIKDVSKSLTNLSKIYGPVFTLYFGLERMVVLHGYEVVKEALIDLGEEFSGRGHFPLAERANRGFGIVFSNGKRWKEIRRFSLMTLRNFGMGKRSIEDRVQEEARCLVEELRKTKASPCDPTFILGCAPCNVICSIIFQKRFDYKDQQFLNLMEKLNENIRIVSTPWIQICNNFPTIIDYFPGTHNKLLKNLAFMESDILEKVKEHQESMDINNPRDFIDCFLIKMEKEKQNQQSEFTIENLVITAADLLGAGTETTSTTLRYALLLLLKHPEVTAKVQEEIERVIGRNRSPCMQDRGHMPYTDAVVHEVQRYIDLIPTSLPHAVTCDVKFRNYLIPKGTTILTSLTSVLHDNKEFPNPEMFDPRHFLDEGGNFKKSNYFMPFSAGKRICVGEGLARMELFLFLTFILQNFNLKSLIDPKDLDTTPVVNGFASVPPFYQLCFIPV

[3] = target: Cytochrome P450 2C9 (Homo sapiens, UniProt P11712)
Cytochrome P450 2C9, sequence (P11712 whole entry): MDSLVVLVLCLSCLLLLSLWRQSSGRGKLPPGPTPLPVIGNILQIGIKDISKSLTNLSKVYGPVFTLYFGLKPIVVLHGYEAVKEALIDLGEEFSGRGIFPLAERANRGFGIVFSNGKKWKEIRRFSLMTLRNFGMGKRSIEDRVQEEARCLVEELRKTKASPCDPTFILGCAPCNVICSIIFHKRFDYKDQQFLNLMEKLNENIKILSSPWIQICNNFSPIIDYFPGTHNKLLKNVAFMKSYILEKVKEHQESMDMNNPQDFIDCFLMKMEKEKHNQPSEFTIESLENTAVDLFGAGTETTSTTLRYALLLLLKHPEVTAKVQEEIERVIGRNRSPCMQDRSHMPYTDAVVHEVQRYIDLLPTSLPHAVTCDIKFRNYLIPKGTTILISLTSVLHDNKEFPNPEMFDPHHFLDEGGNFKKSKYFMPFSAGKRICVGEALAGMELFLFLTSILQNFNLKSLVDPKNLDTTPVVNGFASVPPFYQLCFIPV

[4] = target: T1, Cytochrome P450 3A4
[5] = system: H4; assay: Luminescence Cell-Based Dose Response HTS to Identify Activators of 5'UTR Stem-Loop Driven Prion Protein mRNA Translation in H4 Neuroglioblastoma Cells. [Related pubchem assays: 1829 (Project Summary), 1814 (Primary HTS)]; assay type: functional; settings: Homo sapiens
[6] = Luminescence Cell-Based Dose Confirmation HTS to Identify Activators of 5'UTR Stem-Loop Driven Alpha-Synuclein mRNA Translation in H4 Neuroglioblastoma Cells. [Related pubchem assays: 1829 (Project Summary), 1814 (Primary HTS)]; assay type: functional
[7] = Luminescence Cell-Based Dose Response HTS to Identify Activators of Luciferase Translation or Activity in H4 […] Cells. [Related pubchem assays: 1829 (Project Summary), 1814 (Primary HTS)]; assay type: functional
[8] = HEK-293T viability loss after treatment – luminescence, T-cell screen hits, cytotoxicity control for TCR NF-kB inhibitor project, dose response (AID 489026); assay type: functional, cell-based;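 further: cells exposed to compound about 14 hours before the viability readout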
[9] = target: T2, Microphthalmia-associated transcription factor (Homo sapiens, UniProt O75030); assay: reducers of TRPM1 reporter luminescence, concentration series – cell-based, SK-MEL-5, cherry-picked, set 3, MITF inhibitor project, dose response (AID 493073); assay type: functional;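 further: SK-MEL-5 melanoma cells with luciferase driven by the MITF target TRPM1 promoter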
T2 sequence (O75030 whole entry): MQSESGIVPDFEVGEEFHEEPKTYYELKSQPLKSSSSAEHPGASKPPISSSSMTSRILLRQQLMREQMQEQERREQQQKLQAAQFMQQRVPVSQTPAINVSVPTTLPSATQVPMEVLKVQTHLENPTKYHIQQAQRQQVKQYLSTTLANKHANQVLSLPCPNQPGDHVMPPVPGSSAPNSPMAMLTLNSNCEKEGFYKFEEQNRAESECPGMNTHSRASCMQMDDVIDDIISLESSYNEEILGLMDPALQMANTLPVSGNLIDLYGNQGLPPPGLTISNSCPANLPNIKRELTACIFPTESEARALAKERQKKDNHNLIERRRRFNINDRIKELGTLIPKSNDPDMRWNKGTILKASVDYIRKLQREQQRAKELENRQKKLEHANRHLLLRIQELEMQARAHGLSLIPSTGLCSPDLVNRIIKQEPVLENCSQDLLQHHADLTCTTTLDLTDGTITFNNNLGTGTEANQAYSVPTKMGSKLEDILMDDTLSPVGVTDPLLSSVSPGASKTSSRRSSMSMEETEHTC

[10] = cells; assay type: functional, cell-based
[11] = cells; assay type: functional, cell-based; remark: listed apart in the source
[12] = intracellular Trypanosoma cruzi inhibitors in host cells – cell-based, plate reader, cherry-pick samples, set 3, dose response (AID 651818); assay type: functional;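 further: compounds incubated with infected cells for about four days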
[13] = NIH-3T3 fibroblast cytotoxicity, dose response, cytotoxicity control, cell-based, fluorescence, Alamar Blue, secondary assay (AID 2327); assay type: functional;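 further: NIH-3T3 mouse fibroblasts cultured with fluconazole at 8 µg/mL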
[14] = fluconazole-exposed Candida albicans growth modulators – fluorescence, retest, confirmation (AID 2467); assay type: functional, cell-based

T1 sequence (P08684 whole entry): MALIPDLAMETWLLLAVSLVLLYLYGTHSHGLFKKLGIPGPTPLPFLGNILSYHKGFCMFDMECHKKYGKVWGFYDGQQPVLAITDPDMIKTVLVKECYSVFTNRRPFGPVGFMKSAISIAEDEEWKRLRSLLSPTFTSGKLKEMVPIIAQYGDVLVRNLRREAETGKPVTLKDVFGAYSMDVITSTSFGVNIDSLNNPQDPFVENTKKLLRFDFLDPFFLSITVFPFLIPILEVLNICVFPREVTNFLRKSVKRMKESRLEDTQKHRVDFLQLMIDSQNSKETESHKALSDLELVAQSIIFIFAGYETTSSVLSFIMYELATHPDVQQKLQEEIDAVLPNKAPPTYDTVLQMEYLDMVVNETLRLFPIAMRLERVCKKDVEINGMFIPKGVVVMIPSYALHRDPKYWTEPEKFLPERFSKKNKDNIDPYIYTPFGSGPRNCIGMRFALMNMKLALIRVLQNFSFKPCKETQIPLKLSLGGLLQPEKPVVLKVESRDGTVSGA

## COC1C=CO[C@@]2(C)Oc3c(C)c(O)c4c(O)c(c5c(nc6cc(C)ccn65)c4c3C2=O)NC(=O)/C(C)=C\C=CC(C)C(O)[C@@H](C)C(O)C(C)[C@@H](OC(C)=O)C1C (some centres not stated)
[1]
  AC50: 7.94 µM (inconclusive)

## Cc1c(Cl)cccc1NC(=O)C[C@H]1Sc2ccccc2NC1=O
[2]
  AC50: 3.16 µM (inconclusive)
[3]
  AC50: inconclusive
[4]
  AC50: 3.98 µM (inconclusive)

## O=C(/C=C\c1ccc(O)c(O)c1)O[C@@H]1C[C@](O)(C(=O)O)C[C@@H](O)[C@@H]1O
[3]
  AC50: inconclusive

## CCN(CC)CCCC(C)n1c(-c2ccccc2)nc2c(N3CCOCC3)nc(C)nc21 (configuration not stated)
[1]
  AC50: 15.8 µM (inconclusive)

## COC(=O)c1c(C)[nH]c(C(=O)OCc2ccc(F)cc2)c1C
[5]
  EC50: 9.55 µM (active)
[6]
  EC50: 0.115 µM (active)
[7]
  EC50: 23.8 µM (active)

## CCOc1c2ccc(C(=O)NC3CCCc4ccccc43)cc2nn1C (configuration not stated)
[3]
  AC50: inconclusive

## Cc1ccc(C(=O)c2cn(-c3ccc(F)c(Cl)c3)nn2)cc1
[3]
  AC50: inconclusive

## CCN1C(=O)C(O)(C2COC(C)(C)CC2=O)c2ccccc21 (configuration not stated)
[2]
  AC50: 25.1 µM (inconclusive)
[3]
  AC50: inconclusive

## COc1cccc(C(=O)Nc2ccc(N3CCN(C(=O)c4ccco4)CC3)cc2)c1
[5]
  EC50: > 120 µM (not active)
[6]
  EC50: > 120 µM (not active)
[7]
  EC50: 8.46 µM (active)

## Cc1cc(NC(=O)COC(=O)c2ccc(S(=O)(=O)N3CCCc4ccccc43)cc2)no1
[8]
  IC50: > 80 µM (inactive)

## COc1ccc(NS(=O)(=O)c2cc(NC(=O)CNC(=O)c3cccc(OC)c3)ccc2C)cc1
[9]
  AC50: 11 µM (active)

## Cc1nc(Sc2nnnn2C)c2c3c(sc2n1)CCC3
[9]
  AC50: 4.98 µM (active)
[8]
  IC50: > 80 µM (inactive)

## COC(=O)c1cccc(C23CC4(C2)[C@H](CN(Cc2ccc(C(F)(F)F)cc2)[C@@H]4c2ccccc2)C3c2ccc(Cl)nc2)c1 (some centres not stated)
[1]
  AC50: 3.98 µM (inconclusive)

## CCCn1c(-c2ccc(F)cc2)nc2c(NCCN(C(C)C)C(C)C)nc(C)nc21
[1]
  AC50: 10 µM (inconclusive)

## COc1cc(C(=O)OCC(=O)Nc2cc(C)on2)ccc1OCc1ccccc1Cl
[5]
  EC50: 20.6 µM (active)
[6]
  EC50: 7.95 µM (active)
[7]
  EC50: 4.54 µM (active)

## Cn1c(-c2ccc(-c3ccccc3)cc2)cnc1S
[5]
  EC50: 15.6 µM (active)
[6]
  EC50: 7.14 µM (active)
[7]
  EC50: 7.75 µM (active)

## O=C(Nc1ccccc1)O[C@@H]1C[C@H]2CCC(=O)N3CC[C@@H](C1)[C@@H]23
[5]
  EC50: 53.9 µM (active)
[6]
  EC50: 0.39 µM (active)
[7]
  EC50: 40.9 µM (active)

## O=C(NCC1CCCO1)c1cc(-c2ccccc2)on1 (configuration not stated)
[5]
  EC50: > 120 µM (not active)
[6]
  EC50: 11.6 µM (active)
[10]
  EC50: 17.2 µM (active)
[11]
  EC50: > 350 µM (not active)
[7]
  EC50: 35.5 µM (active)

## CN1C(=O)/C(=C(/C#N)c2nc3ccccc3[nH]2)c2ccccc21
[2]
  AC50: 11.2 µM (inconclusive)
[3]
  AC50: inconclusive

## C[C@@H]1CN([C@H](C)CO)C(=O)Cc2cc(NC(=O)Nc3cccc4ccccc34)ccc2O[C@H]1CN(C)Cc1ccccc1
[12]
  AC50: 6.25 µM (active)

## C[C@@H]1CN([C@H](C)CO)C(=O)Cc2cc(NC(=O)CCC(F)(F)F)ccc2O[C@@H]1CN(C)Cc1ccc(Oc2ccccc2)cc1
[12]
  AC50: 2.81 µM (active)

## C[C@@H]1CN([C@@H](C)CO)C(=O)c2cccc(NC(=O)CCCCCC(=O)Nc3ccccc3N)c2O[C@H]1CN(C)CC1CC1
[12]
  AC50: 4.62 µM (active)

## C[C@@H]1CCCCO[C@@H](CN(C)Cc2ccc(C(F)(F)F)cc2)[C@@H](C)CN([C@H](C)CO)C(=O)c2cc(NC(=O)Nc3ccccc3)ccc2O1
[12]
  AC50: 5.35 µM (active)

## C[C@@H]1CCCCO[C@@H](CN(C)C(=O)Nc2ccc(C(F)(F)F)cc2)[C@@H](C)CN([C@H](C)CO)C(=O)c2cc(NC(=O)Nc3ccc4c(c3)OCO4)ccc2O1
[12]
  AC50: 4.09 µM (active)

## C[C@@H]1CCCCO[C@@H](CN(C)C(=O)c2ccccc2)[C@@H](C)CN([C@H](C)CO)C(=O)c2cc(NC(=O)Nc3ccc(C(F)(F)F)cc3)ccc2O1
[12]
  AC50: 6.48 µM (active)

## C[C@@H]1CN([C@H](C)CO)C(=O)Cc2cc(NS(=O)(=O)c3ccc(F)cc3)ccc2O[C@H]1CN(C)Cc1ccc(Cl)c(Cl)c1
[12]
  AC50: 2.26 µM (active)

## Cc1scc(C(=O)N/N=C/c2ccc([N+](=O)[O-])o2)c1C
[13]
  EC50: > 150 µM (inactive)
[14]
  EC50: 1.48 µM (active)
[9]
  AC50: 2.19 µM (active)

## CC[C@H](CO)NCCN[C@@H](CC)CO
[3]
  AC50: inconclusive

## C#CCCCCCCCCCCCC(O)CC(O)COC(C)=O (configuration not stated) [AVOCADYNE ACETATE]
[1]
  AC50: 39.8 µM (inconclusive)

## S=c1ccss1 [DITHIOLETHIONE]
[1]
  AC50: 10 µM (inconclusive)

## N#Cc1nn(-c2c(Cl)cc(C(F)(F)F)cc2Cl)c(N)c1[S+]([O-])C(F)(F)F (configuration not stated) [FIPRONIL]
[1]
  AC50: 25.1 µM (inconclusive)
